From PubChem BioAssay AID256 (DTP/NCI, 2004)
Several values for one entry are separate records, joined by “and”; a condition that tells them apart may be missing. Equal values may be shown once. Toxic doses and inconclusive results are not listed. The calls were made as follows: active = survival T/C of 150% or more; inactive = T/C below 125% in these data.

Test system: CD2F1 mice, L1210 leukemia ip, survival T/C
Test: NCI In Vivo Anticancer Drug Screen. Data for tumor model L1210 Leukemia (intraperitoneal) in CD2F1 (CDF1) mice
Settings: higher = longer survival
Summary of the method: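 Ratio T/C, where T is the treated-group value and C the vehicle-dosed control value, from mice implanted with a transplantable tumor.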

[1] = endpoint: mean survival time, dose: 100.0 mg/kg/injection, schedule: Q04DX003 (ip), vehicle: saline with Tween-80
[2] = endpoint: mean survival time, dose: 200.0 mg/kg/injection, schedule: Q04DX003 (ip), vehicle: saline with Tween-80
[3] = endpoint: mean survival time, dose: 400.0 mg/kg/injection, schedule: Q04DX003 (ip), vehicle: saline with Tween-80
[4] = endpoint: mean survival time, dose: 100.0 mg/kg/injection, schedule: Q04DX003 (ip), vehicle: saline
[5] = endpoint: mean survival time, dose: 200.0 mg/kg/injection, schedule: Q04DX003 (ip), vehicle: saline
[6] = endpoint: mean survival time, dose: 400.0 mg/kg/injection, schedule: Q04DX003 (ip), vehicle: saline
[7] = endpoint: mean survival time, dose: 100.0 mg/kg/injection, schedule: Q01DX009 (ip), vehicle: saline
[8] = endpoint: mean survival time, dose: 200.0 mg/kg/injection, schedule: Q01DX009 (ip), vehicle: saline
[9] = endpoint: mean survival time, dose: 12.5 mg/kg/injection, schedule: Q01DX009 (ip), vehicle: Klucel (hydroxypropylcellulose) (HPC)
[10] = endpoint: mean survival time, dose: 25.0 mg/kg/injection, schedule: Q01DX009 (ip), vehicle: Klucel (hydroxypropylcellulose) (HPC)
[11] = endpoint: mean survival time, dose: 6.25 mg/kg/injection, schedule: Q01DX009 (ip), vehicle: saline
[12] = endpoint: mean survival time, dose: 25.0 mg/kg/injection, schedule: Q01DX009 (ip), vehicle: saline

Measured: T/C

CC1CCC(=O)C2(C)CC3OC(=O)C(C)C3C=C12 (stereo not given)
inactive: [1] 94 % of control | [2] 93 % of control | [3] 86 % of control

CCc1c(Cl)c(C)c(Cl)c(O)c1Cl
inactive: [1] 96 % of control | [2] 88 % of control

C=C1C(=O)OC2(C)C(C)=C(C)C12C (stereo not given)
inactive: [4] 101 % of control | [5] 112 % of control | [6] 108 % of control

O=C(O)C(=Cc1ccnc2ccccc12)C(=O)O
inactive: [7] 100 % of control | [1] 111 % of control | [8] 94 % of control | [2] 100 % of control | endpoint: mean survival time, dose: 400.0 mg/kg/injection, schedule: Q01DX009 (ip), vehicle: saline 111 % of control | [3] 98 % of control

CN(C)c1ccc2c(Nc3ccc(NS(C)(=O)=O)cc3)c3ccc(N(C)C)cc3nc2c1
active: endpoint: median survival time, dose: 50.0 mg/kg/injection, schedule: Q01DX009 (ip), vehicle: Klucel (hydroxypropylcellulose) (HPC) 170 % of control | endpoint: median survival time, dose: 100.0 mg/kg/injection, schedule: Q01DX009 (ip), vehicle: Klucel (hydroxypropylcellulose) (HPC) 151 % of control and 193 % of control | endpoint: median survival time, dose: 200.0 mg/kg/injection, schedule: Q01DX009 (ip), vehicle: Klucel (hydroxypropylcellulose) (HPC) 164 % of control and 174 % of control

CCC[CH2][Pb]([Cl])([CH2]CCC)[CH2]CCC
inactive: endpoint: mean survival time, dose: 1.5 mg/kg/injection, schedule: Q01DX009 (ip), vehicle: saline with Tween-80 96 % of control | endpoint: mean survival time, dose: 3.0 mg/kg/injection, schedule: Q01DX009 (ip), vehicle: saline with Tween-80 96 % of control | endpoint: mean survival time, dose: 6.0 mg/kg/injection, schedule: Q01DX009 (ip), vehicle: saline with Tween-80 93 % of control | endpoint: mean survival time, dose: 6.25 mg/kg/injection, schedule: Q04DX003 (ip), vehicle: saline with Tween-80 93 % of control | endpoint: mean survival time, dose: 12.5 mg/kg/injection, schedule: Q04DX003 (ip), vehicle: saline with Tween-80 87 % of control | endpoint: mean survival time, dose: 25.0 mg/kg/injection, schedule: Q04DX003 (ip), vehicle: saline with Tween-80 93 % of control

S=C(N/N=C1/CCCC/C1=N/NC(=S)N1CCOCC1)N1CCOCC1
inactive: endpoint: median survival time, dose: 1.5 mg/kg/injection, schedule: Q01DX009 (ip), vehicle: saline with Tween-80 95 % of control | endpoint: median survival time, dose: 3.0 mg/kg/injection, schedule: Q01DX009 (ip), vehicle: saline with Tween-80 96 % of control | endpoint: median survival time, dose: 6.0 mg/kg/injection, schedule: Q01DX009 (ip), vehicle: saline with Tween-80 108 % of control | endpoint: median survival time, dose: 12.0 mg/kg/injection, schedule: Q01DX009 (ip), vehicle: saline with Tween-80 109 % of control

O=C(O)CC(CC(=O)O)C(=O)O
inactive: [4] 101 % of control | [5] 103 % of control | [6] 101 % of control

CC(C)(C)C1=CC(=O)C(Cl)(C(C)(C)C)C(Cl)C1=O (stereo not given)
inactive: endpoint: mean survival time, dose: 25.0 mg/kg/injection, schedule: Q01DX001 (ip), vehicle: saline with Tween-80 97 % of control | endpoint: mean survival time, dose: 50.0 mg/kg/injection, schedule: Q01DX001 (ip), vehicle: saline with Tween-80 93 % of control

CCCCCCCCCCCCCCCCCCC(C)C1CCCCC1 (stereo not given)
inactive: endpoint: mean survival time, dose: 100.0 mg/kg/injection, schedule: Q01DX001 (ip), vehicle: saline with Tween-80 104 % of control | endpoint: mean survival time, dose: 200.0 mg/kg/injection, schedule: Q01DX001 (ip), vehicle: saline with Tween-80 107 % of control | endpoint: mean survival time, dose: 400.0 mg/kg/injection, schedule: Q01DX001 (ip), vehicle: saline with Tween-80 101 % of control

O=C(O)c1c(F)c(F)c2c(F)c(F)c(F)c(F)c2c1F
inactive: [1] 93 % of control | [2] 92 % of control

CC(/C=N/NC(N)=S)Cc1ccc(C(C)C)cc1 (stereo not given)
inactive: endpoint: mean survival time, dose: 3.12 mg/kg/injection, schedule: Q01DX009 (ip), vehicle: acetone 104 % of control | endpoint: mean survival time, dose: 6.25 mg/kg/injection, schedule: Q01DX009 (ip), vehicle: acetone 104 % of control | endpoint: mean survival time, dose: 12.5 mg/kg/injection, schedule: Q01DX009 (ip), vehicle: acetone 104 % of control

O=c1scc(-c2ccc(Br)cc2)s1
inactive: [9] 93 % of control | [10] 100 % of control

COc1c(CNC(=O)CCl)cc2[nH]c(C)cc2c1CNC(=O)CCl
inactive: [9] 98 % of control | [10] 98 % of control and 101 % of control | endpoint: mean survival time, dose: 50.0 mg/kg/injection, schedule: Q01DX009 (ip), vehicle: Klucel (hydroxypropylcellulose) (HPC) 98 % of control and 103 % of control | endpoint: mean survival time, dose: 100.0 mg/kg/injection, schedule: Q01DX009 (ip), vehicle: Klucel (hydroxypropylcellulose) (HPC) 97 % of control and 102 % of control | endpoint: mean survival time, dose: 200.0 mg/kg/injection, schedule: Q01DX009 (ip), vehicle: Klucel (hydroxypropylcellulose) (HPC) 93 % of control and 104 % of control | endpoint: mean survival time, dose: 400.0 mg/kg/injection, schedule: Q01DX009 (ip), vehicle: Klucel (hydroxypropylcellulose) (HPC) 95 % of control

CCCCCc1ccc(C#N)cc1
inactive: endpoint: mean survival time, dose: 50.0 mg/kg/injection, schedule: Q01DX001 (ip), vehicle: saline 100 % of control | endpoint: mean survival time, dose: 100.0 mg/kg/injection, schedule: Q01DX001 (ip), vehicle: saline 97 % of control | endpoint: mean survival time, dose: 200.0 mg/kg/injection, schedule: Q01DX001 (ip), vehicle: saline 89 % of control | endpoint: mean survival time, dose: 400.0 mg/kg/injection, schedule: Q01DX001 (ip), vehicle: saline 93 % of control

Cc1cc(SCC(=O)c2ccc(Br)cc2)cc(C)[o+]1
inactive: [11] 96 % of control and 104 % of control | endpoint: mean survival time, dose: 12.5 mg/kg/injection, schedule: Q01DX009 (ip), vehicle: saline 102 % of control and 108 % of control | [12] 96 % of control and 108 % of control | endpoint: mean survival time, dose: 50.0 mg/kg/injection, schedule: Q01DX009 (ip), vehicle: saline 92 % of control and 96 % of control | [7] 102 % of control | [8] 86 % of control

O=C1CC2OCC=C3CN4CCC5(C(=O)O)C(N1)C2C3CC45 (stereo not given)
inactive: endpoint: mean survival time, dose: 75.0 mg/kg/injection, schedule: Q01DX001 (ip), vehicle: saline 106 % of control | endpoint: mean survival time, dose: 150.0 mg/kg/injection, schedule: Q01DX001 (ip), vehicle: saline 100 % of control | endpoint: mean survival time, dose: 300.0 mg/kg/injection, schedule: Q01DX001 (ip), vehicle: saline 100 % of control

Cc1ccc(C#CP(C#Cc2ccc(C)cc2)C#Cc2ccc(C)cc2)cc1
inactive: endpoint: mean survival time, dose: 1.56 mg/kg/injection, schedule: Q01DX009 (ip), vehicle: saline with Tween-80 92 % of control | endpoint: mean survival time, dose: 3.12 mg/kg/injection, schedule: Q01DX009 (ip), vehicle: saline with Tween-80 96 % of control | [11] 96 % of control | [12] 96 % of control

C=CC1(C)CCN=C(CCN2CCCCC2)O1 (stereo not given)
inactive: endpoint: mean survival time, dose: 100.0 mg/kg/injection, schedule: Q01DX001 (ip), vehicle: saline sonified 97 % of control | endpoint: mean survival time, dose: 200.0 mg/kg/injection, schedule: Q01DX001 (ip), vehicle: saline sonified 100 % of control

CC(=O)NS(=O)(=O)c1ccc(N=Cc2ccc3c(c2)OCO3)cc1
inactive: endpoint: mean survival time, dose: 100.0 mg/kg/injection, schedule: Q01DX009 (ip), vehicle: saline with Tween-80 100 % of control | endpoint: mean survival time, dose: 200.0 mg/kg/injection, schedule: Q01DX009 (ip), vehicle: saline with Tween-80 95 % of control | endpoint: mean survival time, dose: 400.0 mg/kg/injection, schedule: Q01DX009 (ip), vehicle: saline with Tween-80 94 % of control
